The record followed here is ChEMBL document CHEMBL3272004, “Dibenz[b,e]oxepinalkanoic acids as nonsteroidal antiinflammatory agents. 3. omega-(6,11-Dihydro-11-oxodibenz[b,e]oxepin-2-yl)alkanoic acids” (J Med Chem, 1977).

Data set [1] concerns Rattus norvegicus. As to the kind of experiment: Antiinflammatory activity in po dosed Wistar rat assessed as inhibition of carrageenan-induced paw edema administered 1 hr prior to carrageenan challenge measured after 3 hrs of carrageenan challenge. The data set is classed as functional. (In general: Carrageenan injected into the paw causes an acute inflammation.)
Data set [2] concerns Rattus norvegicus. As to the kind of experiment: Induction of carrageenan-induced paw edema in Wistar rat administered 1 hr prior to carrageenan challenge measured at 50 mg/kg, po after 3 hrs of carrageenan challenge relative to vehicle-treated control. Set-up: dose 50 mg/kg, route oral. The data set is classed as organism-based. Conditions: in vivo.
Data set [3] relates to Rattus norvegicus. As to the kind of experiment: Antiinflammatory activity in Wistar rat assessed as inhibition of carrageenan-induced paw edema administered 1 hr prior to carrageenan challenge measured at 25 mg/kg, po after 3 hrs of carrageenan challenge relative to vehicle-treated control. Type of data set: functional.

SMILES strings stand for the structures. The source made the active and inactive calls. No cut-off for these calls is given here.

For `O=C(O)CCCc1ccc2c(c1)C(=O)c1ccccc1CO2`, the ED50 (usually the dose that gives a 50% effect, or the effect in half of the subjects) in data set [1] amounted to 10.1 mg/kg.
Regarding `O=C(O)CCCCCc1ccc(OCc2ccccc2C(=O)O)cc1`, the inhibition entry in data set [1] was “inactive”.
`O=C(O)CCc1ccc2c(c1)C(=O)c1ccccc1CO2` showed an Activity in data set [2] of 11%.
Take `COC(=O)CCCc1ccc2c(c1)C(=O)c1ccccc1CO2`: the inhibition in vivo (usually the share of the control response that was lost under treatment) at 25 mg/kg in data set [3] is 31.7%.
As to `CC(C)OC(=O)CCCc1ccc2c(c1)C(=O)c1ccccc1CO2`, the inhibition in vivo at 25 mg/kg in data set [3] stood at 43.7%.
On to `O=C(O)Cc1ccc2c(c1)C(=O)c1ccccc1CO2` [ISOXEPAC], for which the 50% effective dose (ED50) in data set [1] came out at 6.4 mg/kg.
For the molecule `O=C(O)CCCCCCCc1ccc(OCc2ccccc2C(=O)O)cc1`, in data set [1], the inhibition result was “inactive”.
For `O=C(O)CCc1ccc(OCc2ccccc2C(=O)O)cc1`, the inhibition entry in data set [1] was “inactive”.
As for `O=C(O)CCCCCCCc1ccc2c(c1)C(=O)c1ccccc1CO2`, in data set [1], the ED50 came out at 11.7 mg/kg.
The same measure, in the same setting: for `O=C(O)CCCCCc1ccc2c(c1)C(=O)c1ccccc1CO2` the value was 18.2 mg/kg; for `COc1ccc2c(c1)c(CC(=O)O)c(C)n2C(=O)c1ccc(Cl)cc1` [INDOMETHACIN], 4.4 mg/kg.
With `O=C(O)CCCc1ccc(OCc2ccccc2C(=O)O)cc1`, the inhibition entry in data set [1] was “inactive”.
